Assays:
Experiment in all cases: MIC, broth microdilution (CLSI), substance alone or ATB combined with compound at 4 or 8 μg/mL
ECO 190317 = format: cell-based, E. coli; conditions: ECO 190317
Experimental: (§1) Compounds of the present invention were assessed against genotyped bacterial strains alone or in combination with an antibacterial. In the assays, MICs of said compounds or combination of antibiotics with fixed concentrations of said compounds (4 or 8 μg/mL) were determined by the broth microdilution method according to the Clinical Laboratory Standards Institute (CLSI-M7-A7). Briefly, compounds alone according to the invention were prepared in DMSO and spotted (2 μL each) on sterile polystyrene plates (Corning, 3788). Combinations of compounds and antibiotics dilutions were prepared in DMSO and spotted (1 μL each) on sterile polystyrene plates (Corning, 3788). Log phase bacterial suspensions were adjusted to a final density of 5·10^5 CFU/mL in cation-adjusted Mueller-Hinton broth (ca-MHB; Becton-Dickinson and Company) and added to each well (98 μL). Assays including Fosfomycin were supplemented with 25 μg/ml of Glucose-6-phosphate. Microplates were incubated for 16-20 h at 35° C. in ambient air. The MIC of the compounds was defined as the lowest concentration of said compounds that prevented bacterial growth as read by visual inspection. The MIC of ATB at each compound concentration was defined as the lowest concentration of ATB that prevented bacterial growth as read by visual inspection.

ECO UFR39 = format: cell-based, E. coli; conditions: ECO UFR39
Experimental: as §1

KPN 6299 = format: cell-based, K. pneumoniae
Experimental: as §1

KPN BAA-1898 = format: cell-based, K. pneumoniae; conditions: KPN BAA-1898
Experimental: as §1

KPN UFR42 = format: cell-based, K. pneumoniae; conditions: KPN UFR42
Experimental: as §1

ECL P99 = format: cell-based, E. cloacae; conditions: ECL P99
Experimental: as §1

PAE 105250 = format: cell-based, P. aeruginosa; conditions: PAE 105250
Experimental: as §1

PAE UFR48 = format: cell-based, P. aeruginosa; conditions: PAE UFR48
Experimental: as §1

PAE UFR90 = format: cell-based, P. aeruginosa; conditions: PAE UFR90
Experimental: as §1

SAU 29213 = format: cell-based, S. aureus; conditions: SAU 29213
Experimental: as §1

SPN 49619 = format: cell-based, S. pneumoniae; conditions: SPN 49619
Experimental: as §1

CO/N=C(\C(=O)N[C@@H]1C(=O)N2C(C(=O)[O-])=C(C[n+]3cccc4c3CCC4)CS[C@H]12)c1csc(N)n1 [CPO]
0.125 µg/mL: MIC ATB combined with Example 13 @8 μg/ml (KPN 6299; with Example 13 at 8 μg/ml) | MIC ATB combined with Example 1 @8 μg/ml (KPN BAA-1898; with Example 1 @8 μg/ml) | MIC ATB combined with Example 1 @8 μg/ml (KPN BAA-1898; with Example 1 at 8 μg/ml)
8 µg/mL: MIC ATB combined with Example 9 @4 μg/ml (PAE UFR90; with Example 9 @4 μg/ml)
<=0.031 μg/mL: MIC ATB combined with Example 15 @4 μgml (ECO 190317; with Example 15 at 4 μg/ml) | MIC ATB combined with Example 9 @4 μg/ml (KPN 6299; with Example 9 @4 μg/ml) | MIC ATB combined with Example 9 @4 μg/ml (KPN 6299; with Example 9 at 4 μg/ml) | MIC ATB combined with Example 15 @4 μgml (KPN 6299; with Example 15 at 4 μg/ml) | MIC ATB combined with Example 11 @8 μg/ml (KPN BAA-1898; with Example 11 at 8 μg/ml) | MIC ATB combined with Example 15 @4 μgml (KPN BAA-1898; with Example 15 at 4 μg/ml) | MIC ATB combined with Example 7 @8 μgml (ECL P99; with Example 7 at 8 μg/ml) | MIC ATB alone (SPN 49619; CPO alone) | MIC ATB alone (SPN 49619; antibiotic alone) | MIC ATB combined with Example 1 @8 μg/ml (SPN 49619; with Example 1 @8 μg/ml) | MIC ATB combined with Example 9 @4 μg/ml (SPN 49619; with Example 9 @4 μg/ml)
32 µg/mL: MIC ATB alone (PAE 105250; CPO alone) | MIC ATB alone (PAE 105250; antibiotic alone) | MIC ATB combined with Example 9 @4 μg/ml (PAE 105250; with Example 9 @4 μg/ml)
<0.031 µg/mL: MIC ATB combined with Example 1 @8 μg/ml (ECO 190317; with Example 1 @8 μg/ml) | MIC ATB combined with Example 1 @8 μg/ml (ECO 190317; with Example 1 at 8 μg/ml) | MIC ATB combined with Example 7 @8 μgml (ECO 190317; with Example 7 at 8 μg/ml) | MIC ATB combined with Example 9 @4 μg/ml (ECO 190317; with Example 9 @4 μg/ml) | MIC ATB combined with Example 9 @4 μg/ml (ECO 190317; with Example 9 at 4 μg/ml) | MIC ATB combined with Example 11 @8 μg/ml (ECO 190317; with Example 11 at 8 μg/ml) | MIC ATB combined with Example 12 @8 μg/ml (ECO 190317; with Example 12 at 8 μg/ml) | MIC ATB combined with Example 13 @8 μg/ml (ECO 190317; with Example 13 at 8 μg/ml) | MIC ATB combined with Example 14 @8 μg/ml (ECO 190317; with Example 14 at 8 μg/ml) | MIC ATB combined with Example 16 @4 μg/ml (ECO 190317; with Example 16 at 4 μg/ml) | MIC ATB combined with Example 1 @8 μg/ml (ECO UFR39; with Example 1 @8 μg/ml) | MIC ATB combined with Example 9 @4 μg/ml (ECO UFR39; with Example 9 @4 μg/ml) | MIC ATB combined with Example 11 @8 μg/ml (KPN 6299; with Example 11 at 8 μg/ml) | MIC ATB combined with Example 12 @8 μg/ml (KPN 6299; with Example 12 at 8 μg/ml) | MIC ATB combined with Example 14 @8 μg/ml (KPN 6299; with Example 14 at 8 μg/ml) | MIC ATB combined with Example 16 @4 μg/ml (KPN 6299; with Example 16 at 4 μg/ml) | MIC ATB combined with Example 7 @8 μgml (KPN BAA-1898; with Example 7 at 8 μg/ml) | MIC ATB combined with Example 9 @4 μg/ml (KPN BAA-1898; with Example 9 @4 μg/ml) | MIC ATB combined with Example 9 @4 μg/ml (KPN BAA-1898; with Example 9 at 4 μg/ml) | MIC ATB combined with Example 12 @8 μg/ml (KPN BAA-1898; with Example 12 at 8 μg/ml) | MIC ATB combined with Example 14 @8 μg/ml (KPN BAA-1898; with Example 14 at 8 μg/ml) | MIC ATB combined with Example 16 @4 μg/ml (KPN BAA-1898; with Example 16 at 4 μg/ml) | MIC ATB combined with Example 9 @4 μg/ml (KPN UFR42; with Example 9 @4 μg/ml) | MIC ATB combined with Example 1 @8 μg/ml (ECL P99; with Example 1 @8 μg/ml) | MIC ATB combined with Example 1 @8 μg/ml (ECL P99; with Example 1 at 8 μg/ml) | MIC ATB combined with Example 9 @4 μg/ml (ECL P99; with Example 9 @4 μg/ml) | MIC ATB combined with Example 9 @4 μg/ml (ECL P99; with Example 9 at 4 μg/ml) | MIC ATB combined with Example 11 @8 μg/ml (ECL P99; with Example 11 at 8 μg/ml) | MIC ATB combined with Example 12 @8 μg/ml (ECL P99; with Example 12 at 8 μg/ml) | MIC ATB combined with Example 14 @8 μg/ml (ECL P99; with Example 14 at 8 μg/ml) | MIC ATB combined with Example 15 @4 μgml (ECL P99; with Example 15 at 4 μg/ml) | MIC ATB combined with Example 16 @4 μg/ml (ECL P99; with Example 16 at 4 μg/ml) | MIC ATB combined with Example 1 @8 μg/ml (PAE 105250; with Example 1 @8 μg/ml) | MIC ATB combined with Example 1 @8 μg/ml (PAE UFR48; with Example 1 @8 μg/ml) | MIC ATB combined with Example 1 @8 μg/ml (PAE UFR90; with Example 1 @8 μg/ml) | MIC ATB combined with Example 9 @4 μg/ml (SAU 29213; with Example 9 @4 μg/ml)
0.5 µg/mL: MIC ATB combined with Example 1 @8 μg/ml (KPN 6299; with Example 1 @8 μg/ml) | MIC ATB combined with Example 1 @8 μg/ml (KPN 6299; with Example 1 at 8 μg/ml) | MIC ATB combined with Example 13 @8 μg/ml (KPN BAA-1898; with Example 13 at 8 μg/ml)
16 µg/mL: MIC ATB combined with Example 1 @8 μg/ml (KPN UFR42; with Example 1 @8 μg/ml) | MIC ATB alone (ECL P99; antibiotic alone)
0.063 µg/mL: MIC ATB combined with Example 7 @8 μgml (KPN 6299; with Example 7 at 8 μg/ml) | MIC ATB combined with Example 13 @8 μg/ml (ECL P99; with Example 13 at 8 μg/ml)
>256 µg/mL: MIC ATB alone (ECO 190317; antibiotic alone) | MIC ATB alone (KPN 6299; antibiotic alone) | MIC ATB alone (KPN BAA-1898; antibiotic alone)
1 µg/mL: MIC ATB alone (SAU 29213; CPO alone) | MIC ATB alone (SAU 29213; antibiotic alone) | MIC ATB combined with Example 1 @8 μg/ml (SAU 29213; with Example 1 @8 μg/ml)
>32 µg/mL: MIC ATB alone (ECO UFR39; CPO alone) | MIC ATB alone (ECO UFR39; antibiotic alone) | MIC ATB alone (KPN UFR42; CPO alone) | MIC ATB alone (KPN UFR42; antibiotic alone) | MIC ATB alone (PAE UFR48; CPO alone) | MIC ATB alone (PAE UFR48; antibiotic alone) | MIC ATB combined with Example 9 @4 μg/ml (PAE UFR48; with Example 9 @4 μg/ml) | MIC ATB alone (PAE UFR90; CPO alone) | MIC ATB alone (PAE UFR90; antibiotic alone)

Source: patent US20200024278A1, “COMPOSITION COMPRISING ANTIBIOTIC COMPOUND AND AN HETEROCYCLIC COMPOUND AND THEIR USE IN PREVENTING OR TREATING BACTERIAL INFECTIONS” (MUTABILIS, priority 2016, published 2020)
